Source: patent US12187749B2, “Application of dipyrrinato-iridium complexes in anti-tumor and anti-bacterial therapy” (BIOLITEC UNTERGEHMENSBETEILIGUNGS II AG, priority 2020, dated 2025)

Key:
[1] = tested on: Staphylococcus aureus DSM 1104; assay: Antibacterial testing (CFU/ml count) against S. aureus; type: cell-based; settings: photosensitizer 100, 10 and 1 μM; for antibacterial activity against S. aureus in the absence of light: absence of light (dark toxicity control), 30 min incubation
Method: The organisms studied were Staphylococcus aureus DSM 1104, Gram-positive and Pseudomonas aeruginosa DSM 1117, Gram-negative. Cultures cells are suspended in sterile phosphate-buffered saline (PBS) or sterile PBS supplemented with 10% sterile horse blood serum. The bacterial suspensions are placed into sterile black well plates with clear bottoms. Concentrations of photosensitizer used in the study were as follows: 100 μM, 10 μM and 1 μM. After an incubation time period of 30 minutes, the samples are exposed to white light, with a power density and irradiation time resulting in an energy fluency of about 100 J/cm^2. Control plates contained no photosensitizer and are not exposed to laser light. The control samples for dark toxicity are only exposed to photosensitizer without any illumination. After irradiation, the samples are removed and suspended again in the culture media. The numbers of colony-forming units (CFU/ml) are enumerated after an adequate incubation time period.

[2] = tested on: HT 29 and other cell lines; assay: Cell tests (XTT cell viability), dark toxicity, in HT 29 and other cell lines; type: cell-based; settings: 2 or 10 μM photosensitizer, 24 h incubation, XTT assay
Method: The photosensitizing activity was determined in the following cell lines: • HT29 (human colon adenocarcinoma cell line) • L929 (mouse fibroblast cell line) • A431 (human epidermoid carcinoma cell line) • A253 (submaxillary salivary gland, epidermoid cell line) • CAL-27 (human tongue squamous cell carcinoma cell line) • J774A.1 (Mouse BALB/c monocyte macrophage).
The cell lines were grown in DMEM (c.c.pro GmbH) supplemented with 10% heat-inactivated fetal calf serum (FCS, c.c.pro GmbH), 1% penicillin (10000 IU) and streptomycin (10000 μg/ml, c.c.pro GmbH). Cells were kept as a monolayer culture in a humidified incubator (5% CO2 in air at 37° C.). A photosensitizer stock solution (2 mM) was performed in DMSO and was kept in the dark at 4° C. Further dilution was performed in DMEM medium without phenol red supplemented with 10% FCS to reach a final photosensitizer concentration of 2 or 10 μM, respectively. After seeding the cells in micro plates, the cells were incubated with fresh medium (DMEM without phenol red) containing 10% FCS with 2 or 10 μM of the photosensitizer for 24 h before light exposure. Before photosensitization, cells were washed, cell culture medium was exchanged with DMEM without phenol red and 10% FCS, then irradiated at room temperature with white light source at a fixed fluence rate of about 100 mW/cm^2 (50 J/cm^2). Following irradiation, cells were incubated in a humidified incubator (5% CO2 in air at 37° C.) for 24 h until cell viability assay. The cell viability was assessed by the XTT assay. 500 mg XTT (sodium 3′-[phenyl-aminocarbonyl)-3,4-tetrazolium]-bis(4-methoxy-6-nitro)benzene sulfonic acid, Applichem GmbH) is dissolved in 500 ml PBS-Buffer (without Ca^2+ and Mg^2) and sterile filtered. Solution was stored in the dark at −20° C. until use. A sterile solution containing PMS (N-methyl dibenzopyrazine methyl sulfate, Applichem GmbH) was needed as an activation reagent for the XTT. 0.383 mg PMS was dissolved in 1 ml PBS-Buffer. […] The absorbance of the samples was measured with a microplate reader (Infinite 200, Tecan Group Ltd.) at a wavelength of 490 nm.

Substance | antibacterial activity in the presence of complex media (serum addition) ([1]; PBS supplemented with 10% sterile horse blood serum) | antibacterial activity against S. aureus in the absence of light [1] | toxicity to cells in the absence of light (dark toxicity) [2]
Bis(2-phenylpyridyl){5-[2,3,5,6-tetrafluoro-4-(1′-thio-β-D-galactosyl)phenyl]-dipyrrinato}iridium(III) [Example 3.4] | antibacterial activity is also observed | high antibacterial activity | –
Bis(2-phenylpyridyl){5-[2,3,5,6-tetrafluoro-4-(1′-thio-β-D-glucosyl)phenyl]-dipyrrinato}iridium(III) [Example 3.3] | – | high antibacterial activity | –
Chlorido{5-[4-(N,N-dibutylamino)-3-nitrophenyl]dipyrrinato}(pentamethyl-cyclopentadienyl)iridium(III) [Example 1.6] | – | – | non-toxic
[5-(4-Butyloxy-2,3,5,6-tetrafluorophenyl)dipyrrinato]chlorido-(pentamethylcyclopentadienyl)iridium(III) [Example 1.3] | – | – | non-toxic
{5-[4-(N-2-Hydroxyethylamino)-2,3,5,6-tetrafluorophenyl]dipyrrinato}bis(2-phenyl-pyridyl)iridium(III) [Example 2.1] | – | high antibacterial activity | –
{5-[4-(N-Butylamino)-2,3,5,6-tetrafluorophenyl]dipyrrinato}chlorido-(pentamethylcyclopentadienyl)iridium(III) [Example 1.2] | – | – | non-toxic
